From patent US7276532B2, “Remedies for vesical hyperactivity” (Kyowa Hakko Kogyo Co., Ltd., priority 2001, dated 2007)

Tests used:
spinal cord-injured rats = experiment: Inhibitory activity on detrusor hyperreflexia (cystometry test); format: in vivo, rat; details: average ± standard error
Procedure: The experiment was carried out according to the method of Cheng, et al. [Brain Res., Vol. 678, pp. 40-48 (1995)].
Female SD rats of 8 to 10 weeks of age (supplied by Japan SLC) were used in the test. Five to seven animals of these rats were put in each metal cage and reared by allowing them to freely take commercially available chow and water, in an animal room at room temperature between 19 and 25° C. and humidity between 30 and 70% under illumination for 12 hours (from 7:00 a.m. to 7:00 p.m.) per day.
An operation of spinal cord injury was performed in the rats. Each animal was anesthetized with diethyl ether and the skin of the back side thoracic cord part was incised. A laminectomy at the 7th to 8th thoracic vertebrae level was performed. Then, the thoracic cord at the T7-T8 segments was macroscopically cut and a section of spinal cord (about 5 mm) was removed, and the wound cavity of the removed part was filled with oxidized regenerated cellulose for hemostasis. The incised part was sutured with a surgical silk. After the spinal cord injury operation, urine was expressed manually twice per day (at 8:00-9:00 and 18:00-19:00) for about 3 weeks until autonomic micturition developed. An antibiotic (ampicillin, Sigma. Chemical Co.) was intramuscularly administered to the animals at a dose of 150 mg/kg once to twice per day for about 2 weeks.
Four to five weeks after the spinal cord injury, the rats were subjected to bladder catheterization. Under diethyl ether anesthesia, the bladder was exposed by midline incision of the abdomen. […] The bladder catheter was fixed with a surgical silk ligature and indwelled. The other end of the catheter was exposed subcutaneously from the back of the neck, plugged and then fixed to the skin with a surgical thread.
Four to six days after the bladder catheterization, a cystometry test was performed. The rats were put in a Bollman cage (Natsume Seisakusho Co., Ltd.) and a three-way cock was connected to the bladder catheter, one end of the cock was connected to a pressure transducer (Nihon Kohden Corp.) and the other end was connected to a 50-mL syringe (Terumo Corp.) arranged to an infusion pump (Harvard Apparatus, Inc.) for physiological saline infusion. The intravesical pressure signal from the pressure transducer was amplified with a strain pressure amplifier (AP-601G, Nihon Kohden Corp.) connected thereto, and was recorded on a thermal array recorder (RTA-1200, Nihon Kohden Corp.) via a polygraph system (RMP-6008, Nihon Kohden Corp.) containing the above amplifier. Sixty to ninety minutes after the completion of the preparation for the measurement, a room temperature physiological saline was infused into the bladder at a flow rate of 10 mL/h for 30 minutes, the occurence of micturition contractions was confirmed. Thirty minutes later, the infusion of physiological saline was carried out again for 30 minutes, and the intravesical pressure was measured to be used as the pre-administration value. Each of Compounds 1 to 6 was suspended in a 0.5 w/v % aqueous solution of methylcellulose at a concentration of 1 mg/mL suspension. The suspension was further diluted with a 0.5 w/v % aqueous solution of methylcellulose to prepare a suspension or solution for the administration at the intended concentration, which was then orally administered to the animals at a volume of 1 mL/kg. The period of 1, 3 and 5 hours after the dosing was used as the measuring time after the administration of the solvent or a compound tested, and the intravesical infusion of a physiological saline was carried out during a duration of 15 minutes around each measuring time (i.e. from 45 to 75 minutes, from 165 to 195 minutes and from 285 to 315 minutes after the administration of the compound).
Micturition contraction was measured as an index of the voiding function and pre-micturition contraction was measured as an index of detrusor hyperreflexia. […]

[1] = system: rats with bladder hypertrophy; experiment: Inhibitory activity on detrusor instability (cystometry test after partial urethral obstruction); format: in vivo, rat; details: average ± standard error
Procedure: The experiment was carried out according to the method of Malmgren, et al. [J. Urol., Vol. 142, pp. 1134-1138 (1989)].
Female SD rats of 8 to 10 weeks of age (supplied by Japan SLC) were used in the test. Five to seven animals of these rats were put in each metal cage and reared by allowing them to freely take commercially available chow and water, in an animal room at room temperature between 19 and 25° C. and humidity between 30 and 70% under illumination for 12 hours (7:00 a.m.-7:00 p.m.) per day.
The rats were subjected to operation of partial urethral obstruction. Each animal was anesthetized by intraperitoneal administration of 50 mg/kg pentobarbital sodium (Dainippon Pharmaceutical Co., Ltd.), and the midline incision of the skin and muscle was made in the lower abdomen. A polyethylene tube (PE-20, Nippon Becton Dickinson Co., Ltd.) was inserted into urethra from the urethral to the bladder neck. After the proximal urethra was peeled and double-ligated, the polyethylene tube was pulled out to cause partial urethral obstruction. The incised part was-sutured with a surgical silk thread. An antibiotic (ampicillin, Sigma Chemical Co.) was intramusclarly administered to the animals at a dose of 150 mg/kg.
Six weeks after the operation of the partial urethral obstruction, the rats with bladder hypertrophy were subjected to bladder catheterization. Under anesthesia with pentobarbital sodium, the bladder was exposed by midline incision of the abdomen. […] The bladder catheter was fixed with a surgical silk ligature and indwelled. The other end of the catheter was exposed subcutaneously from the back of the neck, plugged and then fixed to the skin with a surgical thread.
Four to six days after the bladder catheterization, a cystometry test was performed. The rats were put in a Bollman cage (Natsume Seisakusho Co., Ltd.) and a three-way cock was connected to the bladder catheter, one end of the cock was connected to a pressure transducer (Nihon Kohden Corp.) and the other end was connected to a 50-mL syringe (Terumo Corp.) arranged to an infusion pump (Harvard Apparatus, Inc.) for physiological saline infusion. The intravesical pressure signal from the pressure transducer was amplified with a strain pressure amplifier (AP-601G, Nihon Kohden Corp.) connected thereto, and was recorded on a thermal array recorder (RTA-1200, Nihon Kohden Corp.) via a polygraph system (RMP-6008, Nihon Kohden Corp.) containing the above amplifier. Sixty to ninety minutes after the completion of the preparation for the measurement, intravesical infusion of a room temperature physiological saline at a flow rate of 10 mL/h was started and continued until the completion of the test, and the occurrence of micturition contractions and pre-micturition contractions were confirmed. The chart for 30 minutes after 3 hours from the commencement of the saline infusion was used as the values before the drug administration. Each of Compounds 1 to 3 was suspended in a 0.5 w/v % aqueous solution of methylcellulose at a concentration of 1 mg/mL. The suspension was further diluted with a 0.5 w/v % aqueous solution of methylcellulose to prepare a suspension or solution for the administration at the intended concentration. This was then orally administered to the animals at a volume of 1 mL/kg. The period of 1, 3 and 5 hours after the dosing was used as the measuring time after the administration of the solvent or a compound tested, and a duration of 15 minutes around each measuring time (45 to 75 minutes, 165 to 195 minutes and 285 to 315 minutes after the administration of the compound) was used as the measuring period.
Micturition contraction was used as an index of the voiding function and pre-micturition contraction was measure as an index of detrusor instability. […]

Structure (SMILES) | micturition contractions (relative value, before administration = 100) (spinal cord-injured rats; 1 mg/kg p.o., after 1 hr.) | pre-micturition contractions (relative value, before administration = 100) (spinal cord-injured rats; 1 mg/kg p.o., after 1 hr.) | micturition contractions (relative value, before administration = 100) (spinal cord-injured rats; 1 mg/kg p.o., after 3 hrs.) | pre-micturition contractions (relative value, before administration = 100) (spinal cord-injured rats; 1 mg/kg p.o., after 3 hrs.) | micturition contractions (relative value, before administration = 100) (spinal cord-injured rats; 1 mg/kg p.o., after 5 hrs.) | pre-micturition contractions (relative value, before administration = 100) (spinal cord-injured rats; 1 mg/kg p.o., after 5 hrs.) | other results
CC(O)(C(=O)Nc1ccc(Cl)c2c1C(=O)c1sccc1CS2(=O)=O)C(F)(F)F (stereo not drawn) [Compound 6] | 96.8 ± 4.4% | 62.7 ± 9.3% | 109.4 ± 6.4% | 87.9 ± 16.9% | 113.9 ± 15.4% | 69.0 ± 11.8% | –
CC(C)(C)C(=O)Nc1cccc2c1C(=O)c1sccc1CO2 [Compound 5] | 96.8 ± 4.4% | 86.2 ± 10.2% | 109.4 ± 6.4% | 57.3 ± 9.2% | 113.9 ± 15.4% | 44.8 ± 6.1% | –
C[C@](O)(C(=O)Nc1cccc2c1C(=O)c1sccc1CO2)C(F)(F)F [Compound 4] | 95.5 ± 8.2% | 58.6% | 106.2 ± 7.0% | 44.4% | 121.4 ± 9.5% | 42.6% | –
COc1ccc2c(c1)CS(=O)(=O)c1cccc(NC(=O)C(C)(O)C(F)(F)F)c1C2=O (stereo not drawn) [Compound 2] | – | – | – | – | – | – | micturition contractions (relative value, before administration = 100) (spinal cord-injured rats; 3 mg/kg p.o., after 1 hr.): 94.9 ± 14.3%; pre-micturition contractions (relative value, before administration = 100) (spinal cord-injured rats; 3 mg/kg p.o., after 1 hr.): 55.1 ± 7.3%; micturition contractions (relative value, before administration = 100) (spinal cord-injured rats; 3 mg/kg p.o., after 3 hrs.): 93.6 ± 16.7%; pre-micturition contractions (relative value, before administration = 100) (spinal cord-injured rats; 3 mg/kg p.o., after 3 hrs.): 80.2 ± 23.6%; micturition contractions (relative value, before administration = 100) (spinal cord-injured rats; 3 mg/kg p.o., after 5 hrs.): 99.4 ± 9.0%; pre-micturition contractions (relative value, before administration = 100) (spinal cord-injured rats; 3 mg/kg p.o., after 5 hrs.): 66.8 ± 14.5%; micturition contractions (relative value, before administration = 100) ([1]; 3 mg/kg p.o., after 1 hr.): 104.5 ± 2.0%; pre-micturition contractions (relative value, before administration = 100) ([1]; 3 mg/kg p.o., after 1 hr.): 67.5 ± 7.9%; micturition contractions (relative value, before administration = 100) ([1]; 3 mg/kg p.o., after 3 hrs.): 101.9 ± 5.9%; pre-micturition contractions (relative value, before administration = 100) ([1]; 3 mg/kg p.o., after 3 hrs.): 66.9 ± 8.5%; micturition contractions (relative value, before administration = 100) ([1]; 3 mg/kg p.o., after 5 hrs.): 100.9 ± 5.5%; pre-micturition contractions (relative value, before administration = 100) ([1]; 3 mg/kg p.o., after 5 hrs.): 74.7 ± 7.6%
CC(C)(C(=O)[O-])C(=O)Nc1cccc2c1C(=O)c1sccc1CS2(=O)=O.[Na+] [Compound 3] | 109.3 ± 5.7% | 66.2 ± 15.8% | 109.5 ± 8.2% | 65.3 ± 24.9% | 111.4 ± 5.6% | 52.3 ± 13.7% | micturition contractions (relative value, before administration = 100) ([1]; 10 mg/kg p.o., after 1 hr.): 96.8 ± 6.3%; pre-micturition contractions (relative value, before administration = 100) ([1]; 10 mg/kg p.o., after 1 hr.): 62.4 ± 7.1%; micturition contractions (relative value, before administration = 100) ([1]; 10 mg/kg p.o., after 3 hrs.): 95.7 ± 4.7%; pre-micturition contractions (relative value, before administration = 100) ([1]; 10 mg/kg p.o., after 3 hrs.): 49.1 ± 6.3%; micturition contractions (relative value, before administration = 100) ([1]; 10 mg/kg p.o., after 5 hrs.): 92.2 ± 4.6%; pre-micturition contractions (relative value, before administration = 100) ([1]; 10 mg/kg p.o., after 5 hrs.): 51.8 ± 3.5%
